US10450297B2, “Sulfonyl amide derivatives for the treatment of abnormal cell growth” (Pfizer, Inc., priority 2007, dated 2019)

Biological target: FAK kinase (catalytic construct FAK(410-689)) (Homo sapiens (Human), UniProt Q05397)
Assay: FAKcd kinase ELISA (inhibition of poly-glu-tyr phosphorylation by FAK(410-689))
Format: biochemical
Conditions: 50 μM final ATP
Experimental: A. In-Vitro Activity of FAK:
The assay protocol has three parts:
3. […] 4. […] 5. […] 6. […] 7. […] 9. […] 10. […] 12. […] 13. […] 14. Aliquot the FAKcd protein and store frozen at −80° C. II. FAK Activation 1. […] At t120 (t=120 minutes), add 10 μl of 150 mM ATP. […] Add 180 μl aliquots of the desalted material to NiNTA spin column and incubate on spin column 4. […] FAKcd Kinase ELISA 1. Coat 96-well Nunc MaxiSorp plates with poly-glu-tyr (pGT) at […]: Prepare 10 μg/ml of pGT in PBS and aliquot 100 μl/well. Incubate the plates at 37° C. overnight, aspirate the supernatant, wash the plates 3 times with Wash Buffer, and flick to dry before storing at 4° C. 2. Prepare compound stock solutions of 2.5 mM in 100% DMSO. The stocks are subsequently diluted to 60× of the final concentration in 100% DMSO, and diluted 1:5 in Kinase Phosphorylation Buffer. 3. […] Add 80 μl to each well for a final ATP concentration of 50 μM. 4. […] 5. Dilute on ice, FAKcd protein to 1:1000 in Kinase Phosphorylation Buffer. Dispense 30 μl per well. 6. Note: Linearity and the appropriate dilution must be pre-determined for each batch of protein. The enzyme concentration selected should be such that quantitation of the assay signal will be approximately 0.8-1.0 at OD450, and in the linear range of the reaction rate. 7. Prepare both a No ATP control (noise) and a No Compound Control (Signal): 8. (Noise) One blank row of wells receives 10 μl of 1:5 diluted compounds in DMSO, 80 μl of Phosphorylation buffer (minus ATP), and 30 μl FAKcd solution. 9. […] 10. Incubate reaction at room temperature for 15 minutes with gentle shaking on a plate shaker. 11. Terminate the reaction by aspirating off the reaction mixture and washing 3 times with wash buffer. 12. Dilute phospho-tyrosine HRP-conjugated (pY20HRP) antibody to 0.250 μg/ml (1:1000 of Stock) in blocking buffer. Dispense 100 μl per well, and incubate with shaking for 30 minutes at 25°. 13. Aspirate the supernatant and wash the plate 3 times with wash buffer. 14. Add 100 μl per well of room temperature TMB solution to initiate color development. Color development is terminated after approximately 15-30 sec. by the addition of 100 μl of 0.09M H2SO4 per well. 15. The signal is quantitated by measurement of absorbance at 450 nm on the BioRad ricroplate reader or a microplate reader capable of reading at OD450. 16. Inhibition of tyrosine kinase activity would result in a reduced absorbance signal. […] The values are reported as IC50s, μM concentration. FAK Inducible cell-based ELISA: Final Protocol Materials: […]

Chain of FAK kinase (catalytic construct FAK(410-689)) (Q05397 410-689): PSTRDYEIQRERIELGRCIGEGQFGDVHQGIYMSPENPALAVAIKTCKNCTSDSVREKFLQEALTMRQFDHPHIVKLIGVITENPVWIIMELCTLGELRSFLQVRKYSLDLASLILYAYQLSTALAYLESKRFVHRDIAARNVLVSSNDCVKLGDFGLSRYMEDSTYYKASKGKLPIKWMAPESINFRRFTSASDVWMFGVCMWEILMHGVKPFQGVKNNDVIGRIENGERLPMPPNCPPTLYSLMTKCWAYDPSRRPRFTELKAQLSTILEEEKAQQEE

IC50 [nM]	Compound
0.6	CN(c1cccnc1CNc1nc(Nc2ccc(C(N)=O)cc2)ncc1C(F)(F)F)S(C)(=O)=O [Compound 73, 4-({4-(({3-[methyl(methylsulfonyl)amino]pyridin-2-yl}methyl)amino]-5-(trifluoromethyl)pyrimidin-2-yl}amino)benzamide]
0.6	CN(c1nccnc1CNc1nc(Nc2ccccc2)ncc1C(F)(F)F)S(C)(=O)=O [Compound 75, N-[3-({[2-anilino-5-(trifluoromethyl)pyrimidin-4-yl]amino}methyl)pyrazin-2-yl]-N-methylmethane-sulfonamide]
93	CN(c1cccnc1CNc1nc(Nc2ccccc2)ncc1C(F)(F)F)S(C)(=O)=O [Compound 76, N-[2-({[2-anilino-5-(trifluoromethyl)pyrimidin-4-yl]amino}methyl)pyridin-3-yl]-N-methylmethane-sulfonamide]
0.6	CCNC(=O)c1ccc(Nc2ncc(C(F)(F)F)c(NCc3cccc(S(C)(=O)=O)c3)n2)cc1 [Compound 77, N-ethyl-4-{[4-{[3-(methylsulfonyl)benzyl]amino}-5-(trifluoromethyl)pyrimidin-2-yl]amino}benzamide]
0.6	Cc1ccnc(N(C)S(C)(=O)=O)c1CNc1nc(Nc2ccccc2)ncc1C(F)(F)F [Compound 78, N-[3-({[2-anilino-5-(trifluoromethyl)pyrimidin-4-yl)amino}methyl)-4-methylpyridin-2-yl]-N-methylmethanesulfonamide]
2.62	Cc1ncc(CNc2nc(Nc3ccccc3)ncc2C(F)(F)F)c(N(C)S(C)(=O)=O)n1 [Compound 79, N-[5-({[2-anilino-5-(trifluoromethyl)pyrimidin-4-yl]amino}methyl)-2-methylpyrimidln-4-yl]-N-methylmethanesulfonamide]
0.59	Cc1cc(N(C)S(C)(=O)=O)c(CNc2nc(Nc3ccccc3)ncc2C(F)(F)F)cn1 [Compound 80, N-[5-({[2-anilino-5-(trifluoromethyl)pyrimidin-4-yl]amino}methyl)-2-methylpyridin-4-yl]-N-methylmethanesulfonamide]
15.8	CN(c1ncccc1CNc1nc(Nc2ccc(C(F)(F)F)nc2)ncc1C(F)(F)F)S(C)(=O)=O [Compound 81, N-methyl-N-[3-({[5-(trifluoromethyl)-2-{[6-(trifluoromethyl)pyridin-3-yl]amino}pyrimidin-4-yl]amino}methyl)pyridin-2-yl]methanesulfonamide]
0.6	Cc1cnc(N(C)S(C)(=O)=O)c(CNc2nc(Nc3ccc(C(N)=O)cc3)ncc2C(F)(F)F)c1 [Compound 82, 4-({4-(({5-methyl-2-[methyl(methylsulfonyl)amino]pyridin-3-yl}methyl)amino]-5-(trifluoromethyl)pyrimidin-2-yl}amino)benzamide]
0.6	Cc1ccnc(N(C)S(C)(=O)=O)c1CNc1nc(Nc2ccc(C(N)=O)cc2)ncc1C(F)(F)F [Compound 83, 4-({4-[({4-methyl-2-[methyl(methylsulfonyl)amino]pyrldin-3-yl}methyl)amino]-5-(trifluoromethyl)pyrimidin-2-yl}amino)benzamide]
1.71	Cc1ncc(CNc2nc(Nc3ccc(C(N)=O)cc3)ncc2C(F)(F)F)c(N(C)S(C)(=O)=O)n1 [Compound 84, 4-({4-[({2-methyl-4-[methyl(methylsulfonyl)amino]pyrimidin-5-yl}methyl)amino]-5-(trifluoromethyl)pyrimidin-2-yl}amino)benzamide]
0.84	Cc1cc(N(C)S(C)(=O)=O)c(CNc2nc(Nc3ccc(C(N)=O)cc3)ncc2C(F)(F)F)cn1 [Compound 85, 4-({4-[({6-methyl-4-[methyl(methylsulfonyl)amino]pyridin-3-yl}methyl)amino]-5-(trifluoromethyl)pyrimidin-2-yl}amino)benzamide]
1.61	CNC(=O)c1cccc(Nc2ncc(C(F)(F)F)c(NCc3cccnc3N(C)S(C)(=O)=O)n2)c1 [Compound 86, N-methyl-3-({4-[({2-[methyl(methylsulfonyl)amino]pyridin-3-yl}methyl)amino]-5-(trifluoromethyl)pyrimidin-2-yl}amino)benzamide]
21.5	CN(c1ncccc1CNc1nc(Nc2cccc(C(=O)Nc3cccc(C(F)(F)F)c3)c2)ncc1C(F)(F)F)S(C)(=O)=O [Compound 88, 3-({4-[({2-[methyl(methylsulfonyl)amino]pyridin-3-yl}methyl)amino]-5-(trifluoromethyl)pyrimidin-2-yl}amino)-N-[3-(trifluoromethyl)phenyl]benzamide]
0.6	CCNC(=O)c1ccc(Nc2ncc(C(F)(F)F)c(NCc3ccc(C)nc3N(C)S(C)(=O)=O)n2)cc1 [Compound 89, N-ethyl-4-({4-[({6-methyl-2-[methyl(rnethylsu!fonyl)amino]pyridin-3-yl}methyl)amino]-5-(trifluoromethyl)pyrimidin-2-yl}amino)benzamide]
0.72	CN(c1ncccc1CNc1nc(Nc2cccc(C(=O)N3CC(O)C3)c2)ncc1C(F)(F)F)S(C)(=O)=O [Compound 90, N-[3-({[2-({3-{(3-hydroxyazetidin-1-yl)carbonyl]phenyl}amino)-5-(trifluoromethyl)pyrimidin-4-yl]amino}methyl)pyridin-2-yl]-N-methylmethane-sulfonamide]
188	CCn1nccc1Nc1ncc(C(F)(F)F)c(NCc2cccnc2N(C)S(C)(=O)=O)n1 [Compound 91, N-{3-[({2-[(1-ethyl-1H-pyrazol-5-yl)amino]-5-(trifluoromethyl)pyrimidin-4-yl}amino)methyl]pyridin-2-yl}-N-methylmethane-sulfonamide]
0.6	COc1cc(Nc2ncc(C(F)(F)F)c(NCc3cccnc3N(C)S(C)(=O)=O)n2)ccn1 [Compound 93, N-{3-[({2-[(2-methoxypyridin-4-yl)amino]-5-(trifluoromethyl)pyrimidin-4-yl}amino)methyl]pyridin-2-yl}-N-methylmethane-sulfonamide]
8.01	Cc1cnccc1Nc1ncc(C(F)(F)F)c(NCc2cccnc2N(C)S(C)(=O)=O)n1 [Compound 94, N-methyl-N-{3-[({2-[(3-methylpyridin-4-yl)amino]-5-(trifluoromethyl)pyrimidin-4-yl)amino)methyl]pyridin-2-yl]methanesulfonamide]
0.6	CN(c1ncccc1CNc1nc(Nc2ccc(C#N)cc2)ncc1C(F)(F)F)S(C)(=O)=O [Compound 95, N-{3-[({2-[(4-cyanophenyl)amino]-5-(trifluoromethyl)pyrimidin-4-yl}amino)methyl]pyridin-2-yl}-N-methylmethane-sulfonamide]
0.59	CCNC(=O)c1ccc(Nc2ncc(C(F)(F)F)c(NCc3ncccc3N(C)S(C)(=O)=O)n2)cc1 [Compound 97, N-ethyl-4-({4-[({3-[methyl(methylsulfonyl)amino]pyridin-2-yl}methyl)amino]-5-(trifluoromethyl)pyrimidin-2-yl}amino)benzamide]
0.59	CCOC(=O)Cc1ccc(Nc2ncc(C(F)(F)F)c(NCc3cccnc3N(C)S(C)(=O)=O)n2)cc1 [Compound 98, ethyl [4-({4-[({2-[methyl(methylsulfonyl)amino]pyridin-3-yl}methyl)amino]-5-(trifluoromethyl)pyrimidin-2-yl}amino)phenyl]acetate]
0.38	CN(c1cccc(CNc2nc(Nc3ccc(C(N)=O)cc3)ncc2C(F)(F)F)c1)S(C)(=O)=O [Compound 99, 4-{[4-({3-[methyl(methylsulfonyl)amino]benzyl}amino)-5-(trifluoromethyl)pyrimidin-2-yl]amino}benzamide]
2.33	CC(=O)Nc1ccc(Nc2ncc(C(F)(F)F)c(NCc3cccnc3N(C)S(C)(=O)=O)n2)cn1 [Compound 102, N-[5-({4-[({2-[methyl(methylsulfonyl)amino]pyridin-3-yl}methyl)amino]-5-(trifluoromethyl)pyrimidin-2-yl}amino)pyridin-2-yl]acetamide]
0.94	CN(c1ncccc1CNc1nc(Nc2ccc(CC(=O)O)cc2)ncc1C(F)(F)F)S(C)(=O)=O [Compound 105, [4-({4-[({2-[methyl(methylsulfonyl)amino]pyridin-3-yl}methyl)amino]-5-(trifluoromethyl)pyrimidin-2-yl}arnino)phenyl]acetic acid]
